{
  "source": "patent US9730449B2",
  "about": "“Thiazole compound and its use in pest control” (Sumitomo Chemical Company, Limited, priority 2014, dated 2017)",
  "key": {"[1]": {"tested_on": "German cockroaches (Blattella germanica)", "assay": "whole plant or invertebrate", "source_text": "2 male imagoes of German cockroaches (Blattella germanica) were released in the polyethylene cup, which was then covered with a lid."}, "[2]": {"tested_on": "common house mosquito (Culex pipiens pallens)", "assay": "whole plant or invertebrate", "type": "in vivo", "details": "concentration of active ingredients of 3.5 ppm in ion exchange water, final-instar larvae, after 24 hours"}, "[3]": {"tested_on": "gambiae sensu stricto (Anopheles gambiae)", "assay": "whole plant or invertebrate", "type": "in vivo", "details": "48 h, 167 ppm in acetone, 0.3 μl topically applied to chest back plate of females, 2 days after the topical application", "protocol": "10 mg of each of the compounds (1a-1), (1a-2), (1a-4), (1a-5), (1a-6), (1a-7), (1a-19), (1a-20), (1a-22), (1a-23), (1a-32), (1a-38), (1a-39), (1a-77), (1b-1), and (1b-2) of the present invention was dissolved in 3 ml of acetone. Test solutions were prepared by diluting each of the above solutions 20-fold with acetone (concentration of active ingredients of 167 ppm). […] The test was performed on 10 imagos per group, after the topical application, the imagos were transferred to a cup, and 5 percent sugar water was given."}, "[4]": {"tested_on": "diamondback moths (Plutella xylostella)", "details": "500 ppm test solution, 20 ml scattered on cabbage; second-instar larvae; 25° C.; after 5 days", "protocol": "20 ml of the above-described test solution was scattered on cabbages (Brassicae oleracea) in a third- or fourth-leaf stage. After air-drying the test solution, the overground portion was cut, collected, and accommodated in a polyethylene cup (capacity of 100 ml) together with 5 second-instar larvae of diamondback moths (Plutella xylostella), followed by storing at 25° C."}, "[5]": {"tested_on": "common houseflies (Musca domestica)", "details": "500 ppm, 0.7 ml on filter paper, sucrose bait; female imagoes; after 24 hours", "text": "10 female imagoes of common houseflies (Musca domestica) were released in the polyethylene cup, which was then covered with a lid."}, "[6]": {"tested_on": "German cockroaches (Blattella germanica)", "details": "500 ppm, 0.7 ml on filter paper, sucrose bait; male imagoes; after 24 hours"}, "[7]": {"tested_on": "two-spotted spider mite (Tetranychus urticae)", "assay": "Test Example 6: kidney bean spray, two-spotted spider mite controlling value", "type": "in vivo", "details": "500 ppm sprayed on kidney beans; female imagoes; 25° C.; 7 days after the treatment", "source_text": "10 female imagoes of two-spotted spider mite (Tetranychus urticae) were released on kidney beans immediately after the primary leaf development. The next day, the test solution was sprayed at an amount in which the test solution dripped, using a spray gun. […] Controlling value (%)=(1−the number of surviving female imagoes in a treatment section/the number of surviving female imagoes in a non-treatment section)×100"}},
  "note": "Like-named read-outs stand apart in the source and are kept apart here.",
  "data": [
    {"smiles": "COc1ccccc1COc1ncc(SC)s1", "note": "[Compound 1a-1, 2-(2-methoxybenzyloxy)-5-methylthiothiazole]", "values": [
      {"measurement": "mortality at 500 ppm", "setting": "[1]; Blattella germanica, 144 h", "value": 100, "unit": "%"},
      {"measurement": "mortality at 3.5 ppm", "setting": "[2]", "value": "≥ 90", "unit": "%"},
      {"measurement": "mortality at 167 ppm", "setting": "[3]", "value": "≥ 90", "unit": "%"}
    ]},
    {"smiles": "CSc1cnc(OCc2cccnc2)s1", "note": "[Compound 1a-9]", "values": [
      {"measurement": "Mortality", "setting": "[4]", "value": "≥ 80", "unit": "%"}
    ]},
    {"smiles": "CSc1cnc(OCc2ccoc2)s1", "note": "[Compound 1a-75]", "values": [
      {"measurement": "Mortality", "setting": "[5]", "value": 100, "unit": "%"}
    ]},
    {"smiles": "COc1ccc(OC)c(COc2ncc(SC)s2)c1", "note": "[Compound 1a-24]", "values": [
      {"measurement": "Mortality", "setting": "[5]", "value": 100, "unit": "%"}
    ]},
    {"smiles": "CSc1cnc(OCc2cc(F)ccc2C)s1", "note": "[Compound 1a-19]", "values": [
      {"measurement": "Mortality", "setting": "[1]; 500 ppm, 0.7 ml on filter paper, sucrose bait, male imagoes, after 6 days", "value": 100, "unit": "%"}
    ]},
    {"smiles": "CSc1cnc(OCc2c(C)cccc2F)s1", "note": "[Compound 1a-16]", "values": [
      {"measurement": "Mortality", "setting": "[6]", "value": 100, "unit": "%"}
    ]},
    {"smiles": "CSc1cnc(OCc2cscc2C)s1", "note": "[Compound 1a-20]", "values": [
      {"measurement": "Mortality", "setting": "[6]", "value": 100, "unit": "%"}
    ]},
    {"smiles": "CSc1cnc(OCc2ccccc2C)s1", "note": "[Compound 1a-2]", "values": [
      {"measurement": "Mortality", "setting": "[6]", "value": 100, "unit": "%"}
    ]},
    {"smiles": "COc1ccccc1COc1nc(C)c(SC)s1", "note": "[Compound 1a-6]", "values": [
      {"measurement": "Controlling value", "setting": "[7]", "value": "≥ 90", "unit": "%"}
    ]},
    {"smiles": "COc1ccc(F)cc1COc1ncc(SC)s1", "note": "[Compound 1a-23]", "values": [
      {"measurement": "Mortality", "setting": "[5]", "value": 100, "unit": "%"}
    ]},
    {"smiles": "COc1ccccc1COc1ncc([S+](C)[O-])s1", "note": "(centres unmarked) [Compound 1b-1, 2-(2-methoxybenzyloxy)-5-methylsulfinylthiazole]", "values": [
      {"measurement": "mortality at 167 ppm", "setting": "[3]", "value": "≥ 90", "unit": "%"}
    ]},
    {"smiles": "CCSc1cnc(OCc2ccccc2C)s1", "note": "[Compound 1a-201, 2-(2-methylbenzyloxy)-5-ethylthiothiazole]", "values": [
      {"measurement": "mortality at 3.5 ppm", "setting": "[2]", "value": "≥ 90", "unit": "%"}
    ]}
  ]
}
